Assay results reported in patent US8530493B2, “Indolopyridines as Eg5 kinesin modulators” (4SC AG, priority 2006, dated 2013).

Tests used:
[1] = tested on: RKO p27 uninduced (proliferating) colon adenocarcinoma cells; experiment: Alamar Blue cell viability assay, RKO p27 uninduced (proliferating); assay type: cell-based; conditions: Homo sapiens, RKOp27, Table B1, anti-proliferative/cytotoxic activity, 72 hours, read-out: −log EC50 RKO p27 uninduced (proliferating) (converted)
Method: The anti-proliferative/cytotoxic activity of the compounds described herein can be tested on subclones of RKO human colon adenocarcinoma cells (Schmidt et al., Oncogene 19, 2423-2429; 2000) using the Alamar Blue cell viability assay (described in O'Brien et al. Eur J Biochem 267, 5421-5426, 2000). The compounds are dissolved as 10 mM solutions in DMSO and subsequently diluted in semi-logarithmic steps. DMSO dilutions are further diluted 1:100 into Dulbecco's modified Eagle's medium (DMEM) containing 10% fetal calf serum to a final concentration twice as much as the final concentration in the test. RKO subclones are seeded into 96 well flat bottom plates at a density of 4000 cells per well in a volume of 50 μl per well. 24 hours after seeding the 50 μl each of the compound dilutions in DMEM medium are added into each well of the 96 well plate. Each compound dilution is tested as triplicates. Wells containing untreated control cells are filled with 50 μl DMEM medium containing 1% DMSO. The cells are then incubated with the substances for 72 hours at 37° C. in a humidified atmosphere containing 5% carbon dioxide. To determine the viability of the cells, 10 μl of an Alamar Blue solution (Biosource) are added and the fluorescence is measured at an extinction of 544 nm and an emission of 590 nm. For the calculation of the cell viability the emission value from untreated cells is set as 100% viability and the emission rates of treated cells are set in relation to the values of untreated cells. Viabilities are expressed as % values. The Graphpad Prism program is used for the calculation of EC50 values for anti-proliferative/cytotoxic activity out of the obtained dose-response curves.
(§1) To determine the cell cycle specific mode of action, subclones of RKO colon adenocarcinoma cells (RKOp21 or RKOp27 as described by Schmidt et al. in Oncogene 19, 2423-2429; 2000) are seeded into 96 well flat bottom plates at a density of 16000 cells per well in a volume of 50 μl per well in DMEM growth medium with 10% FCS containing 10 μM Ponasterone A. 24 hours after seeding the 50 μl each of the compound dilutions in DMEM medium are added into each well of the 96-well plate. Each compound dilution is tested as triplicates. Wells containing untreated control cells are filled with 50 μl DMEM medium containing 1% DMSO. The cells are then incubated with the substances for 72 hours at 37° C. in a humidified atmosphere containing 5% carbon dioxide. To determine the viability of the cells, 10 μl of an Alamar Blue solution (Biosource) are added and the fluorescence is measured at an extinction of 544 nm and an emission of 590 nm. For the calculation of the cell viability the emission value from untreated cells is set as 100% viability and the emission rates of treated cells are set in relation to the values of untreated cells. Viabilities are expressed as % values. The Graphpad Prism program (GraphPad Software, Inc) is used for the calculation of EC50 values out of the obtained dose-response curves. Viability is compared of proliferating cells grown in the absence of the inducer Ponasterone A, versus viability of cells arrested by the expression of ectopic p27Kip1 induced by Ponasterone A.
(§2) Representative values for anti-proliferation/cytotoxicity [measured as −log EC50 (mol/l)] determined in the aforementioned assays follow from the following tables B1, B2 and B3, in which the numbers of the compounds correspond to the numbers of the examples.

[2] = tested on: RKO p27 induced (arrested) colon adenocarcinoma cells; experiment: Alamar Blue cell viability assay, RKO p27 induced by Ponasterone A (arrested); assay type: cell-based; conditions: Homo sapiens, RKOp27, Table B1, cells arrested by Ponasterone A-induced p27Kip1, 72 hours, read-out: −log EC50 RKO p27 induced (arrested) (converted)
Method: as §1, §2

Structure (SMILES) | EC50 [1] [nM] | EC50 [2] [nM]
CCOc1ccc2[nH]c3c(c2c1)C[C@@]1(C)C(=O)N(CCNC)C(=O)N1[C@@H]3c1cccc(O)c1 (racemic) [Example 41, (3aSR,10RS)-6-Ethoxy-10-(3-hydroxy-phenyl)-3a-methyl-2-(2-methylamino-ethyl)-3a,4,9,10-tetrahydro-2,9,10a-triaza-cyclopenta[b]fluorene-1,3-dione] | ≤ 39.8 | ≥ 3160
CCN(C)CCN1C(=O)N2[C@H](c3cccc(O)c3)c3[nH]c4ccc(Cl)cc4c3C[C@@]2(C)C1=O (racemic) [Example 40, (3aSR,10RS)-6-Chloro-2-[2-(ethyl-methyl-amino)-ethyl]-10-(3-hydroxy-phenyl)-3a-methyl-3a,4,9,10-tetrahydro-2,9,10a-triaza-cyclopenta[b]fluorene-1,3-dione] | ≤ 39.8 | ≥ 3160
CN1C(=O)N2[C@H](c3cccc(O)c3)c3[nH]c4ccc(Br)cc4c3C[C@@]2(C)C1=O (racemic) [Example 4, (3aSR,10RS)-6-Bromo-10-(3-hydroxy-phenyl)-2,3a-dimethyl-3a,4,9,10-tetrahydro-2,9,10a-triaza-cyclopenta[b]fluorene-1,3-dione] | 39.8 to 251 | ≥ 3160
COCCOc1ccc2[nH]c3c(c2c1)C[C@@]1(C)C(=O)N(CCN(C)C)C(=O)N1[C@@H]3c1cccc(O)c1 (racemic) [Example 6, (3aSR,10RS)-2-(2-Dimethylamino-ethyl)-10-(3-hydroxy-phenyl)-6-(2-methoxy-ethoxy)-3a-methyl-3a,4,9,10-tetrahydro-2,9,10a-triaza-cyclopenta[b]fluorene-1,3-dione] | ≤ 39.8 | ≥ 3160
CCNCCN1C(=O)N2[C@H](c3cccc(O)c3)c3[nH]c4ccc(OC)cc4c3C[C@@]2(C)C1=O (racemic) [Example 35, (3aSR,10RS)-2-(2-Ethylamino-ethyl)-10-(3-hydroxy-phenyl)-6-methoxy-3a-methyl-3a,4,9,10-tetrahydro-2,9,10a-triaza-cyclopenta[b]fluorene-1,3-dione] | ≤ 39.8 | ≥ 3160
COc1ccc2[nH]c3c(c2c1)C[C@@]1(C)C(=O)N(CCNCC2CC2)C(=O)N1[C@@H]3c1cccc(O)c1 (racemic) [Example 48, (3aSR,10RS)-2-[2-(Cyclopropylmethyl-amino)-ethyl]-10-(3-hydroxy-phenyl)-6-methoxy-3a-methyl-3a,4,9,10-tetrahydro-2,9,10a-triaza-cyclopenta[b]fluorene-1,3-dione] | ≤ 39.8 | ≥ 3160
CNCCN1C(=O)N2[C@H](c3cccc(O)c3)c3[nH]c4ccc(OC)cc4c3C[C@@]2(C)C1=O (racemic) [Example 27, (3aSR,10RS)-10-(3-Hydroxy-phenyl)-6-methoxy-3a-methyl-2-(2-methylamino-ethyl)-3a,4,9,10-tetrahydro-2,9,10a-triaza-cyclopenta[b]fluorene-1,3-dione] | ≤ 39.8 | ≥ 3160
C[C@@]12Cc3c([nH]c4ccc(Cl)cc34)[C@@H](c3cccc(O)c3)N1C(=O)N(CCN)C2=O (racemic) [Example 30, (3aSR,10RS)-2-(2-Amino-ethyl)-6-chloro-10-(3-hydroxy-phenyl)-3a-methyl-3a,4,9,10-tetrahydro-2,9,10a-triaza-cyclopenta[b]fluorene-1,3-dione] | ≤ 39.8 | ≥ 3160
CC(C)NCCN1C(=O)N2[C@H](c3cccc(O)c3)c3[nH]c4ccc(Cl)cc4c3C[C@@]2(C)C1=O (racemic) [Example 38, (3aSR,10RS)-6-Chloro-10-(3-hydroxy-phenyl)-2-(2-isopropylamino-ethyl)-3a-methyl-3a,4,9,10-tetrahydro-2,9,10a-triaza-cyclopenta[b]fluorene-1,3-dione] | ≤ 39.8 | ≥ 316
COc1ccc2[nH]c3c(c2c1)C[C@@]1(C)C(=O)N(CCNC2CCC2)C(=O)N1[C@@H]3c1cccc(O)c1 (racemic) [Example 50, (3aSR,10RS)-2-(2-Cyclobutylamino-ethyl)-10-(3-hydroxy-phenyl)-6-methoxy-3a-methyl-3a,4,9,10-tetrahydro-2,9,10a-triaza-cyclopenta[b]fluorene-1,3-dione] | ≤ 39.8 | ≥ 3160
